Reference: patent publication US20220194962A1, “AZAZINOINDAZOLE DERIVATIVE, PREPARATION METHOD THEREFOR AND USE THEREOF” (CHENGDU SCIMOUNT PHARMATECH CO., LTD., priority 2019, published 2022)
Like-named read-outs stand apart in the source and are kept apart here.

Target: T1, human 5-HT3 receptor (Homo sapiens, UniProt P46098)
T1 sequence (P46098 24-478): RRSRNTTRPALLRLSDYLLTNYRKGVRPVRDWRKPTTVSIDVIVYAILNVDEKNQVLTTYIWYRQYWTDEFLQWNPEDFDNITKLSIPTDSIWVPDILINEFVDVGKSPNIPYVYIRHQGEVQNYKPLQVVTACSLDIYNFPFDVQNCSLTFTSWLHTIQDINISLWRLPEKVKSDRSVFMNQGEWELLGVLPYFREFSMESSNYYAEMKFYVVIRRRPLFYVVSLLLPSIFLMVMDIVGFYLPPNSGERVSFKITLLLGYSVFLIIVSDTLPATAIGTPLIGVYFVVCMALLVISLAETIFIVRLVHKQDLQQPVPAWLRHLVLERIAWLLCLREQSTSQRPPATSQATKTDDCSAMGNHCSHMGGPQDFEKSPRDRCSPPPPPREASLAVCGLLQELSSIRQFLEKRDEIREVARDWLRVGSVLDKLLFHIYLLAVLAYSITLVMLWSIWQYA
Assay: Affinity for human 5-HT3 receptor by scintillation proximity assay (SPA), [9-methyl-3H]BRL-43694 competition
Type: binding
Method: The relative affinity of the compound to human 5-HT3 receptor was detected by scintillation proximity assay (SPA). The specific procedures were as follows: the test compound was diluted to 10 mM with 100% DMSO, and then subjected to 10× gradient dilution with 100% DMSO in a 96-well plate, and each of the resultant solution was further diluted with the test buffer to provide 4× test concentration. The sample, 10 nM of [9-methyl-3H]BRL-43694, 3 μg of human 5-HT3 receptor membrane, and 0.5 mg/mL of SPA beads were incubated in 50 mM Tris-HCl (pH 7.5, 3 mM MgCl2, 1 mM EDTA and 10% DMSO), with a final volume of 0.2 mL. By successively adding 50 μL of competitive test compound or buffer, SPA beads, radioactive ligands and 5-HT3 receptor membrane, the binding reaction was performed in the wells of PicoPlates-96 well plate. After it was stirred and incubated overnight at room temperature, the plate was centrifuged at 1500 rpm for 15 min, and then incubated in dark for 30 min. Finally, the 5-min radioactivity was read in the TopCount microplate counter. Total binding control only contained the above buffer used to dilute the test compound, while the nonspecific binding was determined at the presence of 30 μM MDL-72222, and thus the specific binding was deduced by the total binding control minus the nonspecific binding. All experiments were carried out by ten concentrations of competitive ligand, and each group was established multiple holes. ALB-137391 was used as positive control.
ALB-137391 was a 5-HT3 receptor partial agonist, and provided by AMRI company, USA, with a production batch number of 1631-B-R0-01-43-01. The structure was as follows:
The half inhibitory concentration (IC50) was determined from the specific binding data by using XLfit4.1 curve fitting software of IDBS Ltd.
Inhibition constant Ki=IC50/(1+(L/KD)), wherein L=the concentration of radioactive ligands in the test, KD=the affinity of radioactive ligands to receptors.

Structure (SMILES): [2H]c1ccc2c3c(n[nH]c13)CCN([C@@H]1CN3CCC1CC3)C2=O [Compound 13, (S)-3-deutero-7-(quinuclidin-3-yl)-2,7,8,9-tetrahydro-6H-azepino[5,4,3-cd]indazole-6-one]
- IC50: 0.00331 µM
- Ki: 0.0006 µM
- affinity and inhibitory effect on 5-HT3 receptor compared with positive control ALB-137391 (summary of Table 1): even better than that of positive control ALB-137391
- affinity to human 5-HT3 receptor (in words) (summary of Table 1): strong affinity

Structure (SMILES): O=C1c2ccc(F)c3[nH]nc(c23)CCN1[C@@H]1CN2CCC1CC2 [Compound 14, (S)-3-fluoro-7-(quinuclidin-3-yl)-2,7,8,9-tetrahydro-6H-azepino[5,4,3-cd]indazole-6-one]
- IC50: 0.074 µM
- Ki: 0.0134 µM
- affinity to human 5-HT3 receptor (in words) (summary of Table 1): strong affinity

Structure (SMILES): O=C1c2ccc(Cl)c3[nH]nc(c23)CCN1[C@@H]1CN2CCC1CC2 [Compound 15, (S)-3-chloro-7-(quinuclidin-3-yl)-2,7,8,9-tetrahydro-6H-azepino[5,4,3-cd]indazole-6-one]
- IC50: 0.0471 µM
- Ki: 0.00853 µM
- affinity to human 5-HT3 receptor (in words) (summary of Table 1): strong affinity

Structure (SMILES): O=C1c2ccc(O)c3[nH]nc(c23)CCN1[C@@H]1CN2CCC1CC2 [Compound 12, (S)-3-hydroxyl-7-(quinuclidin-3-yl)-2,7,8,9-tetrahydro-6H-azepino[5,4,3-cd]indazole-6-one]
- IC50: 0.014 µM
- Ki: 0.00253 µM
- affinity to human 5-HT3 receptor (in words) (summary of Table 1): strong affinity

Structure (SMILES): O=C1c2ccc(Br)c3[nH]nc(c23)CCN1[C@@H]1CN2CCC1CC2 [Compound 10, (S)-3-bromo-7-(quinuclidin-3-yl)-2,7,8,9-tetrahydro-6H-azepino[5,4,3-cd]indazole-6-one]
- IC50: 0.0342 µM
- Ki: 0.0062 µM
- affinity to human 5-HT3 receptor (in words) (summary of Table 1): strong affinity

Structure (SMILES): N#Cc1ccc2c3c(n[nH]c13)CCN([C@@H]1CN3CCC1CC3)C2=O [Compound 11, (S)-3-cyano-7-(quinuclidin-3-yl)-2,7,8,9-tetrahydro-6H-azepino[5,4,3-cd]indazole-6-one]
- Ki: 0.0651 µM
- IC50 (human 5-HT3 receptor membrane, 10 nM [9-methyl-3H]BRL-43694, SPA, overnight at room temperature, read-out: IC50): 0.359 µM

Structure (SMILES): O=C1c2cccc3[nH]nc(c23)CCN1[C@@H]1CN2CCC1CC2 [ALB-137391, reference compound]
- IC50: 0.00448 µM
- Ki: 0.00081 µM
